{"source": "patent US20260027126A1", "about": "“COMBINATION THERAPY FOR TREATING CANCERS” (GEISTLICH PHARMA AG, priority 2022, published 2026)", "key": {"AKT [1]": {"test_system": "AKT", "experiment": "in vivo pharmacodynamic experiment, OVCAR8 mouse model: AKT", "conditions": "dose of 500 mg/kg", "procedure": "(§1) In vivo model of ovarian cancer: Pharmacodynamic study and therapeutic experiment using OVCAR8 ovarian cancer model were performed.\n(§2) FIGS. 17A-17B show pharmacodynamics studies of GP-2250."}, "cancer cells": {"test_system": "cancer cells", "experiment": "glycolysis and ATP synthesis in cancer cells", "format": "cell-based, Human", "procedure": "(§3) In vitro assays: Cell viability assay, Western blotting, Colony formation assay, Reverse-phase protein array, and Ultra-high resolution mass spectrometry analysis were performed."}, "hexokinase2": {"target": "T1, hexokinase2 (Homo sapiens, UniProt P52789)", "T1 construct": "endogenous in cells; host or cells: human ovarian cancer cell lines", "T1 sequence (P52789 1-917)": "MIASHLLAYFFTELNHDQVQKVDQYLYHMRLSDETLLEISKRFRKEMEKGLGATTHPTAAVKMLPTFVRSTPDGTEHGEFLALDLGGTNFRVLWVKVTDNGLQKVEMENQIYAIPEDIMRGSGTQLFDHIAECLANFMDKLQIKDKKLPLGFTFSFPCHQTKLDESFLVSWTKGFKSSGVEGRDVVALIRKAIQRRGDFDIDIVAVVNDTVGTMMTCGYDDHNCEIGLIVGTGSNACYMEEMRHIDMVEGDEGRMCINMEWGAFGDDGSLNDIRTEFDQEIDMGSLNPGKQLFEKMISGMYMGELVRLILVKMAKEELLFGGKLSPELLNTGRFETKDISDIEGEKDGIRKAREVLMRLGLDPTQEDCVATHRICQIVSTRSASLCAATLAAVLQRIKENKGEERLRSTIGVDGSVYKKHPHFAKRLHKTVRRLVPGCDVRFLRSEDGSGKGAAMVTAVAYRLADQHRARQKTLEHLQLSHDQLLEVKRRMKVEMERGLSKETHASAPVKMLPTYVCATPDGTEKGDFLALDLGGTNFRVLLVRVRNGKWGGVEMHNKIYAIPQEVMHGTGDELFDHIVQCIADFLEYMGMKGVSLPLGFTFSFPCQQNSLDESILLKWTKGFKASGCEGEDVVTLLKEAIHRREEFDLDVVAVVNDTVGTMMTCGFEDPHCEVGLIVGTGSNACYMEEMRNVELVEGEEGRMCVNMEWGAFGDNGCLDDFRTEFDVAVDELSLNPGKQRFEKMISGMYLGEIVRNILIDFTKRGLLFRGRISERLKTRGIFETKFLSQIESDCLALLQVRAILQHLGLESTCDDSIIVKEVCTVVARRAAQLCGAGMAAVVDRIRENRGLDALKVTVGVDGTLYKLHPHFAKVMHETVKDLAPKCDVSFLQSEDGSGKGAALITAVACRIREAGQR", "experiment": "hexokinase2 activity and expression (ultra-high resolution mass spectrometry analysis, FIG. 16)", "format": "cell-based", "conditions": "GP-2250 treatment of cancer cells", "procedure": "(§4) Human Ovarian cancer cell lines: A2780, Coav3, HeyA8, HeyA8-MDR, Kuramochi, OVCAR3, OVCAR5, OVCAR8, and SKOV3 were obtained and used in studies.\nas §3"}, "mTOR [2]": {"test_system": "mTOR", "experiment": "Reverse Phase Protein Array / Western blotting of ovarian cancer cells: mTOR", "format": "cell-based, Human", "procedure": "as §4, §3"}, "[3]": {"test_system": "ovarian cancer cell lines", "experiment": "cytotoxic effect / cell viability assay in ovarian cancer cell lines", "format": "cell-based, Human", "procedure": "as §4, §3, §1"}, "AKT [4]": {"test_system": "AKT", "experiment": "Reverse Phase Protein Array / Western blotting of ovarian cancer cells: AKT", "format": "cell-based, Human", "procedure": "as §4, §3"}, "[5]": {"test_system": "high-grade ovarian cancer cells (OVCAR8) labeled with luciferase gene", "experiment": "in vivo therapy experiment, orthotopic OVCAR8-L ovarian cancer mouse model", "design": "species or system mice", "conditions": "GP-2250 500 mg/kg 3 times per week i.p., PARP inhibitor 50 mg/kg 5 times per week i.p., take down day 49", "procedure": "FIG. 1 schematically illustrates the experimental design for in vivo testing of the GP-2250 and PARP inhibitors on OVCAR8-L mice. The experiment includes testing: vehicle control, Ringer's solution (10 mice, 200 μl, i.p.); 2) GP-2250 (10 mice, 500 mg/kg. 3 times per week, i.p.); 3) Olaparib (10 mice, 50 mg/kg, 5 times per week, i.p.); 4) the combination of GP-2250 and Olaparib; 5) Niraparib (10 mice, 50 mg/kg, 5 times per week, i.p.); 6) the combination of GP-2250 and Niraparib (10 mice): 7) Rucparib (10 mice, 50 mg/kg, 5 times per week, i.p.); 8) the combination of GP-2250 and Rucaparib . . .\nTumorigenicity of OVCAR8-L was determined using IVIS imaging. IVIS imaging following OCVAR8-L injection. 1×10^6 cells were injected through i.p., and then tumorigenicity was measured. All mice were injected with high-grade ovarian cancer cells (OVCAR8) labeled with luciferase gene by i.p. route.\nas §1"}, "mTOR [6]": {"test_system": "mTOR", "experiment": "in vivo pharmacodynamic experiment, OVCAR8 mouse model: mTOR", "conditions": "dose of 500 mg/kg", "procedure": "as §1, §2"}, "HIF-1α": {"test_system": "HIF-1α", "experiment": "Reverse Phase Protein Array / Western blotting of ovarian cancer cells: HIF-1α", "format": "cell-based, Human", "procedure": "as §4, §3"}, "solubility": {"experiment": "solubility", "format": "physicochemical"}, "[7]": {"conditions": "Western blot, ovarian cancer cells treated for 24 hours"}}, "note": "“Also recorded” adds a separate entry of the source."}
{"smiles": "O=S1(=O)CCOCN1", "note": "[GP-2250]", "values": [{"measurement": "downregulation of AKT activation and expression", "setting": "AKT [1]", "value": "most effective"}, {"measurement": "ATP synthesis", "setting": "cancer cells", "value": "reduced"}, {"measurement": "glycolysis", "setting": "cancer cells", "value": "decreases; also recorded: reduced"}, {"measurement": "hexokinase2 activity and expression", "setting": "hexokinase2", "value": "inhibition; also recorded: significantly reduced"}, {"measurement": "mTOR activation and expression level", "setting": "mTOR [2]; RPPA analyses", "value": "inhibited"}, {"measurement": "mTOR expression", "setting": "mTOR [2]; [7]", "value": "inhibits"}, {"measurement": "cytotoxic effect: vulnerability of HRD versus HRP ovarian cancer cells", "setting": "[3]; HRD cells (Kuramochi, OVCAR4, OVCAR8) compared with HRP cells (A2780, OVCAR5), both vulnerable", "value": "more vulnerable"}, {"measurement": "apoptosis", "setting": "[3]; ovarian cancer cells", "value": "increased apoptosis"}, {"measurement": "proliferation", "setting": "[3]; ovarian cancer cells", "value": "reduced proliferation"}, {"measurement": "AKT activation and expression level", "setting": "AKT [4]; RPPA analyses", "value": "inhibited"}, {"measurement": "AKT expression", "setting": "AKT [4]; [7]", "value": "inhibits"}, {"measurement": "tumor nodules (number)", "setting": "[5]", "value": "2.9±0.48"}, {"measurement": "tumor weight", "setting": "[5]", "value": "2.9 ± 0.48", "unit": "g"}, {"measurement": "downregulation of mTOR activation and expression", "setting": "mTOR [6]", "value": "most effective"}, {"measurement": "hypoxia-inducible factor-1a activation and expression level", "setting": "HIF-1α; RPPA analyses", "value": "inhibited"}, {"measurement": "HIF-1α expression", "setting": "HIF-1α; [7]", "value": "inhibits"}]}
{"smiles": "NC(=O)c1cccc2cn(-c3ccc([C@@H]4CCCNC4)cc3)nc12", "note": "[niraparib]", "values": [{"measurement": "tumor nodules (number)", "setting": "[5]", "value": "3.4±0.44"}, {"measurement": "tumor weight", "setting": "[5]", "value": "0.38 ± 0.05", "unit": "g"}]}
{"smiles": "CNCc1ccc(-c2[nH]c3cc(F)cc4c3c2CCNC4=O)cc1", "note": "[rucaparib]", "values": [{"measurement": "solubility", "setting": "solubility", "value": "relatively poor solubility"}, {"measurement": "tumor nodules (number)", "setting": "[5]", "value": "4.85±0.79"}, {"measurement": "tumor weight", "setting": "[5]", "value": "0.52 ± 0.1", "unit": "g"}]}
{"smiles": "O=C(c1cc(Cc2n[nH]c(=O)c3ccccc23)ccc1F)N1CCN(C(=O)C2CC2)CC1", "note": "[olaparib]", "values": [{"measurement": "tumor nodules (number)", "setting": "[5]", "value": "3.3±0.64"}, {"measurement": "tumor weight", "setting": "[5]", "value": "0.53 ± 0.09", "unit": "g"}]}
